Assay: relative permittivity at various frequencies (dimensionless); xn = mol fraction of the nth substance listed
Details: 101.33 kPa, Liquid, Frequency=3 MHz, OH-301

CCOCCO [2-ethoxyethan-1-ol] + O=[N+]([O-])c1ccccc1
relative permittivity
Details | 293.15 K | 298.15 K | 303.15 K | 308.15 K | 313.15 K
x2 = 0 | 14.25 | 14.03 | 13.76 | 13.44 | 13.07
x2 = 0.0499 | 16.23 | 15.75 | 15.23 | 14.71 | 14.17
x2 = 0.0997 | 18.22 | 17.59 | 16.95 | 16.29 | 15.64
x2 = 0.2 | 21.92 | 21.16 | 20.41 | 19.67 | 18.98
x2 = 0.3002 | 25.24 | 24.4 | 23.54 | 22.77 | 22
x2 = 0.4001 | 28.2 | 27.24 | 26.32 | 25.46 | 24.66
x2 = 0.5 | 30.85 | 29.8 | 28.81 | 27.95 | 27.13
x2 = 0.6003 | 33.21 | 32.07 | 31.07 | 30.15 | 29.38
x2 = 0.7 | 34.94 | 33.75 | 32.71 | 31.81 | 31.04
x2 = 0.7491 | 35.66 | 34.39 | 33.29 | 32.33 | 31.52
x2 = 0.7996 | 36.11 | 34.77 | 33.6 | 32.6 | 31.76
x2 = 0.8504 | 36.37 | 35 | 33.73 | 32.69 | 31.81
x2 = 0.9001 | 36.43 | 34.99 | 33.69 | 32.64 | 31.79
x2 = 0.9456 | 36.26 | 34.87 | 33.66 | 32.67 | 31.9

CCCCOCCO [2-butoxyethan-1-ol] + O=[N+]([O-])c1ccccc1
relative permittivity
Details | 293.15 K | 298.15 K | 303.15 K | 308.15 K | 313.15 K
x2 = 0 | 9.78 | 9.35 | 8.88 | 8.39 | 7.91
x2 = 0.05 | 12.73 | 11.87 | 11.04 | 10.26 | 9.54
x2 = 0.0999 | 15.28 | 14.32 | 13.35 | 12.37 | 11.45
x2 = 0.2003 | 19.6 | 18.58 | 17.59 | 16.63 | 15.76
x2 = 0.3 | 23.44 | 22.39 | 21.39 | 20.42 | 19.59
x2 = 0.4 | 27 | 25.85 | 24.78 | 23.77 | 22.92
x2 = 0.5 | 30.19 | 28.96 | 27.82 | 26.74 | 25.84
x2 = 0.6 | 32.88 | 31.6 | 30.44 | 29.34 | 28.49
x2 = 0.7 | 34.91 | 33.59 | 32.5 | 31.36 | 30.53
x2 = 0.7493 | 35.71 | 34.34 | 33.12 | 32.06 | 31.22
x2 = 0.8 | 36.29 | 34.85 | 33.69 | 32.47 | 31.69
x2 = 0.8506 | 36.65 | 35.21 | 33.91 | 32.79 | 31.92
x2 = 0.9 | 36.77 | 35.26 | 33.96 | 32.85 | 32.04
x2 = 0.9499 | 36.52 | 35.09 | 33.86 | 32.84 | 32.1

O=[N+]([O-])c1ccccc1 [nitrobenzene] + COCCO
relative permittivity
Details | 293.15 K | 298.15 K | 303.15 K | 308.15 K | 313.15 K
x1 = 0.0505 | 19.13 | 18.51 | 17.93 | 17.37 | 16.82
x1 = 0.1011 | 20.66 | 19.96 | 19.31 | 18.66 | 18.05
x1 = 0.2003 | 23.41 | 22.63 | 21.89 | 21.19 | 20.56
x1 = 0.3003 | 25.97 | 25.12 | 24.31 | 23.59 | 22.96
x1 = 0.4002 | 28.41 | 27.45 | 26.59 | 25.84 | 25.16
x1 = 0.4998 | 30.69 | 29.62 | 28.69 | 27.94 | 27.22
x1 = 0.5997 | 32.75 | 31.57 | 30.58 | 29.81 | 29.09
x1 = 0.7001 | 34.4 | 33.23 | 32.18 | 31.31 | 30.59
x1 = 0.752 | 35.1 | 33.87 | 32.8 | 31.91 | 31.17
x1 = 0.8004 | 35.62 | 34.35 | 33.24 | 32.3 | 31.54
x1 = 0.8491 | 36.03 | 34.74 | 33.57 | 32.61 | 31.8
x1 = 0.8974 | 36.21 | 34.89 | 33.72 | 32.76 | 32
x1 = 0.9502 | 36.26 | 34.94 | 33.8 | 32.88 | 32.2
x1 = 1 | 35.91 | 34.78 | 33.84 | 33.13 | 32.66

CCCOCCO [2-propoxyethanol] + O=[N+]([O-])c1ccccc1
relative permittivity
Details | 293.15 K | 298.15 K | 303.15 K | 308.15 K | 313.15 K
x2 = 0 | 11.76 | 11.5 | 11.19 | 10.91 | 10.62
x2 = 0.0497 | 14.29 | 13.73 | 13.13 | 12.57 | 12.02
x2 = 0.1008 | 16.55 | 15.87 | 15.15 | 14.52 | 13.88
x2 = 0.2 | 20.53 | 19.71 | 18.92 | 18.2 | 17.54
x2 = 0.3004 | 24.06 | 23.14 | 22.27 | 21.5 | 20.81
x2 = 0.4 | 27.18 | 26.2 | 25.26 | 24.45 | 23.7
x2 = 0.5 | 30.06 | 28.98 | 27.97 | 27.11 | 26.32
x2 = 0.6008 | 32.56 | 31.43 | 30.36 | 29.47 | 28.73
x2 = 0.6997 | 34.55 | 33.33 | 32.27 | 31.35 | 30.61
x2 = 0.7489 | 35.32 | 34.05 | 32.96 | 32.01 | 31.26
x2 = 0.8 | 35.94 | 34.57 | 33.43 | 32.48 | 31.69
x2 = 0.8499 | 36.33 | 34.95 | 33.75 | 32.73 | 31.91
x2 = 0.9004 | 36.49 | 35.1 | 33.86 | 32.83 | 32.03
x2 = 0.9488 | 36.3 | 34.95 | 33.8 | 32.85 | 32.14
